Patent publication US7619008B2, “Xylitol for treatment of vaginal infections” (Kimberly-Clark Worldwide, Inc., priority 2004, dated 2009)
One block for each compound: values may come before it.

Columns and labels:
Gardnerella vaginalis [1] = assay: Optical density after 24 hours (Example 13); format: cell-based; details: 1.0% (wt/vol) in growth medium pH 6.0, after 24 hours (FIG. 12)
Protocol: A growth medium for Gardnerella vaginalis was prepared according to the manufacturer's instructions, and the pH of this medium was adjusted to pH 6.0 using 1N HCl. D-ribose (99%, Calbiochem), D-arabinose (98%, Alfa Aesar), D-xylose (Aldrich), D-lyxose (99%, Avovado), D-arabitol (97%, Alfa Aesar), adonitol (99%, Alfa Aesar), xylitol (99%, Alfa Aesar), xylitol (98%, Danisco), and xylitol (98%, Aldrich) were then dissolved into the growth medium at a concentration of 1.0% (wt/vol). 0.9 milliliters of the culture medium was also added into a different culture tube as a control. Thereafter, 0.1 milliliter of Garnerella vaginalis culture suspension (concentration of 1×10^6/milliliter) was added to each of the culture tubes, and then incubated overnight at 37° C., and the optical density was then measured after 24 hours at a wavelength of 595 nanometers. This was accomplished by pipetting 100 microliters of the control or sample solutions into 96-well microplates, and then using a ThermoMax Microplate Reader from Molecular Devices of Sunnyvale, Calif. to obtain the optical density readings. The results are depicted in FIG. 12.

Gardnerella vaginalis [2] = assay: Average plate count after 24 hours with gel compositions and solutions (Example 8); format: cell-based; details: 1 ml sample + 0.8 ml growth medium + 0.2 ml suspension, 24 hours at 37° C., triplicate, compositions per Table 8
Protocol: Samples 1-2 were prepared by dissolving the KELCOGEL® (0.07 grams) and/or xylitol (0.44 grams) into 10 milliliters of water heated to between 70° C. to 80° C. Samples 3-4 and 6 were formed by first autoclaving a gallic acid stock solution (0.75 grams of gallic acid/20 mL water), autoclaving, and then adding 200 microliters of sterile gallic acid (0.0075 grams) to each sterile solution. Sample 5 was formed by dissolving 0.44 grams of xylitol in deionized water, followed by autoclaving. Sample 7 was formed by dissolving 0.44 grams of xylitol in sterilized growth medium for Gardnerella vaginalis and then filtering. The amount of xylitol was selected to yield isotonic solutions. After vortexing the solutions to help dissolve the solids, they were allowed to cool to room temperature.
Upon formation, 1 milliliter of each control or sample solution was then added into a culture tube, followed by the addition of 0.8 milliliters of growth medium for Gardnerella vaginalis. To this mixture was added 0.2 milliliters of a Gardnerella vaginalis suspension (at a concentration of around 10^6 cfu/ml; diluted from 10^8 cfu/ml stock). The tubes were incubated in culture tubes at 37° C. After 24 and 48 hours, the optical density was measured for each sample at wavelengths of 450 and 595 nanometers. The 24-hr solution samples were then diluted at 0.001× and 0.0001×. 3 milliliters of growth medium were then added into the 24-hour composition samples, followed by 1 hour of shaking at 30° C. Solution was then taken from well-shaken test tubes and diluted at 0.001× and 0.0001×. “WASP” (Whitely Automatic Spiral Plate) spiral plating equipment from Don Whitely Scientific Limited was used to plate 100 microliters of the above solutions onto agar plates. The plates were incubated overnight at 35° C. The number of colonies on each plate was counted using ProtoCol® software from Synbiosis of Frederick, Md. All samples were plated in triplicate.

Gardnerella vaginalis [3] = assay: Zone of inhibition on agar plates (Examples 1 and 4); format: cell-based; details: 10%, tested as in Example 1
Protocol: Gardnerella vaginalis was obtained from the American Type Culture Collection (ATCC #14018). The culture medium was Casman's medium base (BD 229010) with 5% rabbit blood (ATCC medium 70).
A microorganism culture of 10^5cfu (colony forming units)/ml in a 1× phosphate buffered saline (PBS) solution (diluted from 10× PBS LIQUID CONCENTRATE from VWR Cat. No. EM-6507] was used. One milliliter of the solution was plated on proper agar plates, depending on which microorganism was being tested. The agar plates were incubated at 35° C. for 4 hours. Three 4-millimeter diameter wells were then punched in each agar plate. […] No. 28390, Pierce Biotechnology, Inc., Rockford, Ill.) was added to one well of each plate. Into each of the other two wells were added MES buffer and 1% benzyl quats (diluted from BARDAC® 205M, from Lonza Inc., Fair Lawn, N.J.) as negative and positive controls, respectively. The plates were incubated overnight at 35° C.
The following day, the “zone of inhibition” for each sample was then measured for Gardnerella vaginalis and Lactobacillus acidophilus activity. The “zone of inhibition” is a circular zone formed around the agar plate in which the growth of the microorganism is inhibited. Absent treatment with an effective antimicrobial agent, the bacterial cells would normally produce an opaque lawn of growth. However, when growth is inhibited, a clear zone is observed. […]

[4] = tested on: Lactobacillus acidophilus; assay: as above; format: cell-based; details: 10%, tested as in Example 1
Protocol: Lactobacillus acidophilus was obtained from the American Type Culture Collection (ATCC #4356). The culture medium was Lactobacilli MRS broth (ATCC medium 416).
A microorganism culture of 10^5cfu (colony forming units)/ml in a 1× phosphate buffered saline (PBS) solution (diluted from 10× PBS LIQUID CONCENTRATE from VWR Cat. No. EM-6507] was used. One milliliter of the solution was plated on proper agar plates, depending on which microorganism was being tested. The agar plates were incubated at 35° C. for 4 hours. Three 4-millimeter diameter wells were then punched in each agar plate. A test sample of 100 microliters of 5% xylitol in sterilized 2-N-morpholino ethane sulfonic buffer (0.1 M 2-[morpholino]-ethanesulfonic acid, 0.9% NaCl, pH 4.7, prepared from BupH™ MES Buffer Saline Pack from Cat. No. 28390, Pierce Biotechnology, Inc., Rockford, Ill.) was added to one well of each plate. Into each of the other two wells were added MES buffer and 1% benzyl quats (diluted from BARDAC® 205M, from Lonza Inc., Fair Lawn, N.J.) as negative and positive controls, respectively. The plates were incubated overnight at 35° C.
The following day, the “zone of inhibition” for each sample was then measured for Gardnerella vaginalis and Lactobacillus acidophilus activity. The “zone of inhibition” is a circular zone formed around the agar plate in which the growth of the microorganism is inhibited. […]

Gardnerella vaginalis [5] = assay: Optical density of culture tubes (Example 2); format: cell-based; details: 2, 4, 6 and 24 hours at 37° C., n=4
Protocol: (§1) Test compounds were dissolved in culture media to form a suspension. Control or xylitol solutions (0.9 milliliters) were filtered and added into culture tubes, and to this was added 0.1 milliliter of either the Gardnerella vaginalis or Lactobacillus acidophilus suspension at a concentration of around 10^6 cfu/milliliter. The culture tubes were then incubated overnight at 37° C., whereafter the optical density was measured at 2, 4, 6 and 24 hours by pipetting 100 microliters of the control or sample solutions into 96-well microplates, and then using a ThermoMax Microplate Reader (Molecular Devices of Sunnyvale, Calif.) to obtain the optical density readings at 590 or 600 nm wavelengths. […] The inhibition effect remained evident throughout the 24-hour experimental period.

[6] = tested on: Lactobacillus acidophilus; assay: Optical density of culture tubes (Example 2); format: cell-based; details: 2, 4, 6 and 24 hours at 37° C., n=4
Protocol: as §1

Gardnerella vaginalis [7] = assay: Plate count after 6 hours treatment (Example 3); format: cell-based; details: for Plate Count, G. Vaginalis: 6 hours at 37° C., n = 4
Protocol: (§2) Test compounds were dissolved in culture media to form a suspension. Control or xylitol solutions (0.9 milliliters) were filtered and added into culture tubes. To these solutions, 0.1 milliliter of the Gardnerella vaginalis or Lactobacillus acidophilus suspension was then added at a concentration of around 10^6 cfu/milliliter. The culture tubes were incubated at 37° C. for 6 hours. The samples in the culture tubes were then diluted at 1, 10 and 100 times, and 100 microliters of each dilution was plated onto agar plates with WASP (Whitely Automatic Spiral Plate) spiral plating equipment from Don Whitely Scientific Limited, USA. The plates were incubated overnight at 35° C., and the numbers of colonies were counted on each plate by either ProtoCol® from Synbiosis, Frederick, Md., USA Whitely Scientific Limited, USA or by hand count. The results are shown below in Tables 2-3 and in FIG. 2,

[8] = tested on: Lactobacillus acidophilus; assay: Plate count after 6 hours treatment (Example 3); format: cell-based; details: for Plate Count, L. acidophilus: 6 hours at 37° C., n = 4
Protocol: as §2

[9] = pH and gelation properties of acid-modified KELCOGEL/xylitol solutions (Example 5); format: physicochemical; details: 4.4% (wt/vol) xylitol in 0.7% KELCOGEL solutions
Protocol: Solutions were formed from xylitol and a gellan gum obtained from CP Kelco U.S., Inc. of Chicago, Ill. under the name KELCOGEL®. The solutions contained 0.7% (wt/vol) of the KELCOGEL® gum and 4.4% (wt/vol) xylitol, and were formed by dissolving 0.07 grams of the polymer powder and 0.44 grams of xylitol into 10 milliliters of water at a temperature between 70° C. to 80° C. After vortexing the solutions to help dissolve the solids, they were allowed to cool to room temperature. After cooling, the pH of the solutions was adjusted using varying amounts of either acetic acid or lactic acid.

Trichomonas vaginalis = assay: Viable cell count under microscope (Example 10); format: cell-based; details: for Trichomonas vaginalis cell count in comparison to the control group: xylitol 0.5%, 3.0%, 5.0%
Protocol: Trichomonas vaginalis was obtained from the American Type Culture Collection (ATCC #30001). The culture medium was LYI-S-2 medium (ATCC medium 2154). A sterile LYI-S-2 medium was prepared according to the manufacturer's instructions, and the pH of this medium was adjusted to pH 6.0 using 1 N HCl. Xylitol was then dissolved into the LYI-S-2 medium at concentrations of 0.5%, 3.0%, and 5.0% (wtvol). 0.9 milliliters of xylitol and culture medium (as control) were also added into different culture tubes. Thereafter, 0.1 milliliter of Trichomonas vaginalis culture suspension (concentration of 1×10^6/milliliter) was added to each of the culture tubes, and then incubated at 35° C. on a 15 degree horizontal slant. The viable Trichomonas vaginalis cells in each tube were counted under a microscope after 24 and 48 hours. The above procedure was repeated four times for each concentration of xylitol and the control.

Candida albicans = assay: Viable cell count after 24 hours (Example 12); format: cell-based; details: xylitol 1%, 2%, 3%, 4%, 5.0% (wt/vol) in YM medium pH 6.0, after 24 hours (FIG. 11)
Protocol: A YM culture medium was prepared according to the manufacturer's instructions, and the pH of this medium was adjusted to pH 6.0 using 1N HCl. Xylitol was then dissolved into the YM medium at concentrations of 1%, 2%, 3%, 4%, and 5.0% (wt/vol). 0.9 milliliters of the culture medium were also added into a different culture tube as a control. Thereafter, 0.1 milliliter of Candida albicans culture suspension (concentration of 1×10^6/milliliter) was added to each of the culture tubes, and then incubated at 37° C. The viable Candida albicans cells in each tube were counted under a microscope after 24 hours. The above procedure was repeated four times for each concentration and the control.

SMILES: O=C[C@H](O)[C@H](O)[C@H](O)CO [D-ribose]
Gardnerella vaginalis cell count in comparison to the control group (optical density 595 nanometers) (Gardnerella vaginalis [1]): significantly reduced

SMILES: O=C(O)c1cc(O)c(O)c(O)c1 [Gallic acid, trihydroxybenzoic acid]
Average Plate Count, Gardnerella vaginalis (Gardnerella vaginalis [2]): 3.43 × 10^4

SMILES: OC[C@@H](O)[C@H](O)[C@@H](O)CO [Xylitol in growth media, xylitol]
Average Plate Count, Gardnerella vaginalis (Gardnerella vaginalis [2]): 2.40 × 10^4

SMILES: O=C[C@H](O)[C@@H](O)[C@H](O)[C@H](O)CO [glucose]
zone of inhibition, Gardnerella vaginalis (Gardnerella vaginalis [3]): 0 mm
zone of inhibition, Lactobacillus acidophilus [4]: 0 mm

SMILES: OC[C@@H](O)[C@@H](O)[C@H](O)[C@@H](O)CO [sorbitol]
zone of inhibition, Gardnerella vaginalis (Gardnerella vaginalis [3]): 0 mm
zone of inhibition, Lactobacillus acidophilus [4]: 0 mm

effect on gelation ability of the polymer [9]: did not appear to negatively impact
SMILES: OC[C@@H](O)[C@H](O)[C@@H](O)CO [xylitol, D-xylitol]
inhibition of growth of Gardnerella vaginalis (optical density, FIG. 3) (Gardnerella vaginalis [5]): significant inhibition
inhibition of growth of Lactobacillus acidophilus (optical density, FIG. 4) [6]: did not exhibit any significant inhibition
Plate Count, G. Vaginalis (Gardnerella vaginalis [7]; 1% xylitol): *1.24E+05
Plate Count, G. Vaginalis (Gardnerella vaginalis [7]; 2% xylitol): *1.64E+03
Plate Count, G. Vaginalis (Gardnerella vaginalis [7]; 3% xylitol): *4.63E+02
Plate Count, G. Vaginalis (Gardnerella vaginalis [7]; 4% xylitol): *1.03E+02
Plate Count, G. Vaginalis (Gardnerella vaginalis [7]; 5% xylitol): *1.98E+01
inhibition of Gardnerella vaginalis growth compared to the control group (Gardnerella vaginalis [7]; all five concentrations (1-5% xylitol), 6 hours): significant inhibition
inhibition of the growth of Lactobacillus acidophilus ([8]; 1% and 5% xylitol, 6 hours): did not exhibit any significant inhibition
Plate Count, L. acidophilus ([8]; 1% xylitol): 3.77 ± 0.49 E+05
Plate Count, L. acidophilus ([8]; 5% xylitol): 3.97 ± 0.36 E+05
Average Plate Count, Gardnerella vaginalis (Gardnerella vaginalis [2]): significant inhibition
Average Plate Count, Gardnerella vaginalis (Gardnerella vaginalis [2]; listed as Xylitol): 1.56 × 10^4
live Trichomonas vaginalis cells (Trichomonas vaginalis; 3% xylitol, after 48 hours): No live
live Trichomonas vaginalis cells (Trichomonas vaginalis; 5% xylitol, after 48 hours): No live
Trichomonas vaginalis cell count in comparison to the control group (Trichomonas vaginalis; after 24 hours, pH 6.0, 35° C. (FIG. 8)): significantly reduced
Trichomonas vaginalis cell count in comparison to the control group (Trichomonas vaginalis; after 48 hours, pH 6.0, 35° C. (FIG. 9)): even more significant inhibitory effect
Candida albicans cell count in comparison to the control group (Candida albicans): significantly reduced
Gardnerella vaginalis cell count in comparison to the control group (optical density 595 nanometers) (Gardnerella vaginalis [1]): significantly reduced
